Reference: patent US20260262643A1, “HERBICIDAL BENZOXAZINES” (FMC CORPORATION, priority 2022, published 2026)
Like-named read-outs stand apart in the source and are kept apart here.

What was measured:
blackgrass [1] = experiment: Test A preemergence; format: in vivo, Alopecurus myosuroides; conditions: Alopecurus myosuroides, pre-emergence, 240 h, read-out: Plant response rating, Blackgrass; for pest or weed control at 125 g/ha: 125 g ai/ha; for pest or weed control at 500 g/ha: 500 g ai/ha
How it was run: (§1)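 Loam/sand soil; pre-em directed soil spray at planting, post-em spray at 1–2 leaf (2–10 cm). Compound in non-phytotoxic solvent + surfactant. Greenhouse 10 d; visual injury vs untreated, 0 = no effect, 100 = complete control.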

corn = experiment: Test A preemergence; format: in vivo, Zea mays; conditions: Zea mays, pre-emergence, 240 h; for Corn plant response rating (crop injury, 0 = no effect, 100 = complete kill) at 125 g/ha: 125 g ai/ha; for Corn plant response rating (crop injury, 0 = no effect, 100 = complete kill) at 500 g/ha: 500 g ai/ha
How it was run: as §1

kochia [2] = experiment: Test A preemergence; format: in vivo, Bassia scoparia; conditions: Bassia scoparia, pre-emergence, 240 h, read-out: Plant response rating, Kochia; for pest or weed control at 125 g/ha: 125 g ai/ha; for pest or weed control at 500 g/ha: 500 g ai/ha
How it was run: as §1

ragweed [3] = experiment: Test A preemergence; format: in vivo, Ambrosia artemisiifolia; conditions: Ambrosia artemisiifolia, pre-emergence, 240 h, read-out: Plant response rating, Ragweed; for pest or weed control at 125 g/ha: 125 g ai/ha; for pest or weed control at 500 g/ha: 500 g ai/ha
How it was run: as §1

soybean = experiment: Test A preemergence; format: in vivo, Glycine max; conditions: Glycine max, pre-emergence, 240 h, read-out: Plant response rating, Soybean; for plant injury at 125 g/ha: 125 g ai/ha; for plant injury at 500 g/ha: 500 g ai/ha
How it was run: as §1

wheat [4] = experiment: Test A preemergence; format: in vivo, Triticum aestivum; conditions: Triticum aestivum, pre-emergence, 240 h, read-out: Plant response rating, Wheat; for plant injury at 125 g/ha: 125 g ai/ha; for plant injury at 500 g/ha: 500 g ai/ha
How it was run: as §1

blackgrass [5] = experiment: Test A postemergence; format: in vivo, Alopecurus myosuroides; conditions: Alopecurus myosuroides, post-emergence, 240 h, postemergence, 10 days, 0 to 100 scale (0 no effect, 100 complete control); for pest or weed control at 125 g/ha: 125 g ai/ha, read-out: Blackgrass plant response rating; for pest or weed control at 500 g/ha: 500 g ai/ha, visual injury, read-out: Plant response rating, Blackgrass
How it was run: as §1

foxtail, giant = experiment: Test A postemergence; format: in vivo, Setaria faberi; conditions: Setaria faberi, post-emergence, 240 h, postemergence, 10 days, 0 to 100 scale (0 no effect, 100 complete control); for pest or weed control at 125 g/ha: 125 g ai/ha, read-out: Foxtail, Giant plant response rating; for pest or weed control at 500 g/ha: 500 g ai/ha, visual injury, read-out: Plant response rating, Foxtail, Giant
How it was run: as §1

goosegrass = experiment: Test A postemergence; format: in vivo, Eleusine indica; conditions: Eleusine indica, post-emergence, 240 h, postemergence, 10 days, 0 to 100 scale (0 no effect, 100 complete control); for pest or weed control at 125 g/ha: 125 g ai/ha, read-out: Goosegrass plant response rating; for pest or weed control at 500 g/ha: 500 g ai/ha, visual injury, read-out: Plant response rating, Goosegrass
How it was run: as §1

kochia [6] = experiment: Test A postemergence; format: in vivo, Bassia scoparia; conditions: Bassia scoparia, post-emergence, 240 h, postemergence, 10 days, 0 to 100 scale (0 no effect, 100 complete control); for pest or weed control at 125 g/ha: 125 g ai/ha, read-out: Kochia plant response rating; for pest or weed control at 500 g/ha: 500 g ai/ha, visual injury, read-out: Plant response rating, Kochia
How it was run: as §1

ragweed [7] = experiment: Test A postemergence; format: in vivo, Ambrosia artemisiifolia; conditions: Ambrosia artemisiifolia, post-emergence, 240 h, postemergence, 10 days, 0 to 100 scale (0 no effect, 100 complete control); for pest or weed control at 125 g/ha: 125 g ai/ha, read-out: Ragweed plant response rating; for pest or weed control at 500 g/ha: 500 g ai/ha, visual injury, read-out: Plant response rating, Ragweed
How it was run: as §1

wheat [8] = experiment: Test A postemergence; format: in vivo, Triticum aestivum; conditions: Triticum aestivum, post-emergence, 240 h, postemergence, 10 days, 0 to 100 scale (0 no effect, 100 complete control); for plant injury at 125 g/ha: 125 g ai/ha, read-out: Wheat plant response rating; for plant injury at 500 g/ha: 500 g ai/ha, visual injury, read-out: Plant response rating, Wheat
How it was run: as §1

ducksalad = experiment: Test B flooded paddy test; format: in vivo, Heteranthera limosa; conditions: Heteranthera limosa, 312 h, 250 g ai/ha, Flood, 13 days, 0 to 100 scale (0 no effect, 100 complete control); read-out: Plant response rating, Ducksalad
How it was run: (§2)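 Plants at the 2-leaf stage were flooded to 3 cm above the soil, and test compounds were applied directly into the paddy water, with that depth held throughout. After 13 days in a greenhouse, injury was rated visually against untreated controls on a 0–100 scale (100 = complete control).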

rice = experiment: Test B flooded paddy test; format: in vivo, Oryza sativa; conditions: Oryza sativa, 312 h; 250 g ai/ha, Flood, 13 days, 0 to 100 scale (0 no effect, 100 complete control); read-out: Plant response rating, Rice
How it was run: as §2

[9] = visual injury after 10 days, 0 to 100 scale, 0 is no effect, 100 is complete control
[10] = 0 to 100 scale (0 no effect, 100 complete control), 10 days

| Structure (SMILES) | pest or weed control at 125 g/ha (blackgrass [1]; [9]) [%] | Corn plant response rating (crop injury, 0 = no effect, 100 = complete kill) at 125 g/ha (corn; [9]) [%] | pest or weed control at 125 g/ha (kochia [2]; [9]) [%] | pest or weed control at 125 g/ha (ragweed [3]; [9]) [%] | plant injury at 125 g/ha (soybean; [9]) [%] | plant injury at 125 g/ha (wheat [4]; [9]) [%] | pest or weed control at 125 g/ha (blackgrass [5]) [%] | pest or weed control at 500 g/ha (blackgrass [5]) [%] | pest or weed control at 125 g/ha (foxtail, giant) [%] | pest or weed control at 500 g/ha (foxtail, giant) [%] | pest or weed control at 125 g/ha (goosegrass) [%] | pest or weed control at 500 g/ha (goosegrass) [%] | pest or weed control at 125 g/ha (kochia [6]) [%] | pest or weed control at 500 g/ha (kochia [6]) [%] | pest or weed control at 125 g/ha (ragweed [7]) [%] | pest or weed control at 500 g/ha (ragweed [7]) [%] | plant injury at 125 g/ha (wheat [8]) [%] | plant injury at 500 g/ha (wheat [8]) [%] | pest or weed control at 250 g/ha (ducksalad) [%] | plant injury at 250 g/ha (rice) [%] | also measured |
| --- | --- | --- | --- | --- | --- | --- | --- | --- | --- | --- | --- | --- | --- | --- | --- | --- | --- | --- | --- | --- | --- |
| COCc1ncn(-c2cccc(C(=O)N3C[C@H](C)Oc4c(C)cccc43)c2)n1 [Compound 101, [(2S)-2,3-Dihydro-2,8-dimethyl-4H-1,4-benzoxazin-4-yl][3-[3-(methoxymethyl)-1H-1,2,4-triazol-1-yl]phenyl]methanone] | 50 | 0 | 20 | 0 | 20 | 0 | 70 | 100 | 90 | 90 | 50 | 80 | 70 | 80 | 50 | 50 | 20 | 70 | 55 | 0 | pest or weed control at 500 g/ha (blackgrass [1]; [10]): 90%; Corn plant response rating (crop injury, 0 = no effect, 100 = complete kill) at 500 g/ha (corn; [10]): 60%; pest or weed control at 500 g/ha (kochia [2]; [10]): 90%; pest or weed control at 500 g/ha (ragweed [3]; [10]): 20%; plant injury at 500 g/ha (soybean; [10]): 40%; plant injury at 500 g/ha (wheat [4]; [10]): 50% |
| C[C@H]1CN(C(=O)c2cccc(-c3cnn(C)n3)c2)c2cccc(Cl)c2O1 [Compound 127, [(2S)-8-Chloro-2,3-dihydro-2-methyl-4H-1,4-benzoxazin-4-yl][3-(2-methyl-2H-1,2,3-triazol-4-yl)phenyl]methanone] | 20 | 0 | 0 | 0 | 0 | 0 | 0 | 80 | 50 | 90 | 10 | 70 | 60 | 90 | 0 | 10 | 10 | 20 | 0 | 0 | pest or weed control at 500 g/ha (blackgrass [1]; [9]): 70%; Corn plant response rating (crop injury, 0 = no effect, 100 = complete kill) at 500 g/ha (corn; [9]): 0%; pest or weed control at 500 g/ha (kochia [2]; [9]): 60%; pest or weed control at 500 g/ha (ragweed [3]; [9]): 0%; plant injury at 500 g/ha (soybean; [9]): 0%; plant injury at 500 g/ha (wheat [4]; [9]): 0% |
